Results reported in US7423060B2, “Thiophene hydroxamic acid derivatives and their use as HDAC inhibitors” (Hoffman-La Roche Inc., priority 2004, dated 2008).

Tested on: HT-29 cells
Assay: MTT assay on HT-29 human colon carcinoma cell line
Type: cell-based
Settings: MTT assay after 5 days, compounds 30 μM to 1.5 nM, read-out: IC90 HT29
Protocol: To show the activity of the compounds according to this invention, their effects on a human colon carcinoma cell line was evaluated using a standard MTT-assay. MTT (3-(4,5-dimethylthiazol-2-yl)-2,5-diphenyl tetrazolium bromide) is widely used for the quantitative determination of cytotoxic effects or in vitro chemosensitivity of tumor cells. The assay is based on the cleavage of the yellow tetrazolium salt (MTT) to purple formazan crystals by metabolic active cells. For details, see Rubinstein, L. V., et al., J. Natl. Cancer Inst. 82 (1990) 1113-1118.
We proceeded as follows: HT-29 cells (human colon carcinoma cell line, ATCC-No. HTB-38) were cultivated in RPMI 1640 medium with GlutaMAX™ I (Invitrogen, Cat-No. 61870-010), 2.5% fetal calf serum (FCS, Sigma Cat-No. F4135 (FBS)), 2 mM glutamine, 100 units/ml penicillin, 100 μg/ml streptomycin (=Pen/Strep from Invitrogen Cat. No. 15140). For the assay the cells were seeded in 384 well plates, 900 cells per well, in the same medium. At the next day, the compounds (dissolved 10 mM in DMSO) were added in various concentrations ranging from 30 μM to 1.5 nM. After 5 days, the MTT assay was done mainly according to the instructions of the manufacturer (Cell proliferation kit I, MTT, from Roche Molecular Biochemicals). […] After careful mixing, the plates were measured in Victor 2 (scanning multiweil spectrophotometer, Wallac) at 550 nm. […]

- IC90: 690 nM
Structure (SMILES): CC(NC(=O)c1ccc(C(=O)NO)s1)c1ccc(OCc2ccc(OC(F)(F)F)cc2)cc1 (stereo not shown) [Example 1-1, Thiophene-2,5-dicarboxylic acid 2-hydroxyamide 5-({1-[4-(4-trifluoromethoxy-benzyloxy)-phenyl]-ethyl}-amide)]
